Patent US20090238852A1, “METHODS FOR CONTROLLING INTRACELLULAR CALCIUM LEVELS ASSOCIATED WITH AN ISCHEMIC EVENT” (University of Utah Research Foundation, priority 2008, published 2009)

System: pigs, 75 min LAD balloon occlusion and 3 h reperfusion
Assay: Closed chest porcine model of cardiac ischemia/reperfusion: infarct size (NEC/AAR)
Assay type: in vivo, pig
Conditions: repeated at 90 min reperfusion
Source text: To study the utility of 2-O, 3-O desulfated heparin (ODSH) in reducing ischemic tissue injury from injurious Ca^++ overload, a closed chest porcine model of cardiac ischemia was used. The study was designed to determine if previous findings indicating the protective effect of ODSH in reducing myocardial infarction reperfusion injury in open chest dogs were reproducible in an animal model of ischemia/reperfusion injury more relevant to humans. […] Yorkshire-cross pigs (Palmetto Research Swine, Reevesville, S.C.) of either sex, weighing 25-35 kg, were used for the experiment was employed. Animals were premedicated with an intramuscular injection of ketamine (30 mg/kg), acepromazine (1.1 mg/kg), and atropine (0.05 mg/kg). Pigs were induced with an IV injection of thiopental (10 mg/kg) and maintained with continuous inhalation of isoflurane (1-1.5%). Aspirin (81 mg) was administered by IV prior to the experiment.
Arterial access was achieved via bilateral femoral artery cut-downs for the insertion of 8F sheaths. Central venous and carotid access was achieved via a neck incision to expose the external jugular vein and common carotid artery. […] Baseline cardiodynamic and hemodynamic data were measured using a solid state transducer-tipped catheter in the left ventricle (Millar Instruments, Houston, Tex.) to measure left ventricular pressure, and a fluid-filled transducer connected to the side port of the femoral artery sheath to measure peripheral arterial pressure. Approximately 3-4 million neutron-activated microspheres (BioPhysics Assay Laboratory, Inc, Worcester, Ma) (15 μm) were delivered through a pig-tail catheter into the left ventricle over a 30 second period, to quantify regional myocardial blood flow (RMBF). […] Balloon occlusion time was 75 minutes with coronary occlusion confirmed by contrast angiography, ST segment changes on electrocardiography, and quantitatively confirmed by microspheres delivered at the end of ischemia, as described above. […]

2-O, 3-O desulfated heparin [ODSH]
infarct size (NEC/AAR) compared to control (ODSH 5 mg/kg IV bolus 2 min before balloon deflation): No significant reduction in infarct size
infarct size (NEC/AAR) relative to control (ODSH 15 mg/kg IV bolus 2 min before balloon deflation): significant infarct size reduction
infarct size (NEC/AAR) relative to control (ODSH 45 mg/kg IV bolus 2 min before balloon deflation): significant infarct size reduction
